Source: patent publication US7285556B2, “Thienopyrimidine-based inhibitors of the src family” (Board of Regents, The University of Texas Systems, priority 2000, dated 2007)
Like-named read-outs stand apart in the source and are kept apart here.

Legend:
Format in all cases: biochemical
[1] = target: T1, Recombinant human Src (Homo sapiens, UniProt P12931); experiment: Src tyrosine kinase activity, poly E4Y and 32P-ATP
T1 construct: made in house; host or cells: baculovirus-insect cell system
Method in brief: (§1)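 Recombinant GST-Csk (E. coli) or baculovirus-expressed human Src assayed on poly E4Y in 0.15 M EPPS-NaOH pH 8.0, 6 mM MgCl2, 0.2 mM γ32P-ATP, 10% glycerol, 0.1% Triton X-100. Read-out is 32P incorporation into poly E4Y; for ATP variation (0–250 μM), poly E4Y held at 150 μg/ml.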

[2] = target: T2, Csk (Homo sapiens, UniProt P41240); experiment: Csk tyrosine kinase activity, poly E4Y and 32P-ATP
T2 construct: GST (glutathione-S-transferase) (N); made in house; host or cells: E. coli (pGEX vector)
Method in brief: as §1

[3] = target: FGF receptor (FGFr) (Homo sapiens, UniProt P11362); experiment: FGFr tyrosine kinase activity, poly E4Y and 32P-ATP
Chain of FGF receptor (FGFr) (P11362 398-822): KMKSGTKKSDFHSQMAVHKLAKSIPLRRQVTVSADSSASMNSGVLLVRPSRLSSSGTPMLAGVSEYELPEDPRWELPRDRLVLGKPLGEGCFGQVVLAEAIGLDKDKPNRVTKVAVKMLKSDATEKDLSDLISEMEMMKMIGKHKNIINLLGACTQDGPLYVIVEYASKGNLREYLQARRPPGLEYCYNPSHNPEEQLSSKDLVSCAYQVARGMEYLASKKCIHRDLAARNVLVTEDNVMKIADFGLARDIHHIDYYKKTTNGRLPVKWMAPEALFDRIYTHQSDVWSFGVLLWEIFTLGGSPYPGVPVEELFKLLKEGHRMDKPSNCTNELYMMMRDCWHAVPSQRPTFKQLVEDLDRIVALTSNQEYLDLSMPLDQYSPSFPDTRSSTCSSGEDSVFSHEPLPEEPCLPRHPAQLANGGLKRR
Protocol: Recombinant human Src was expressed using the baculovirus-insect cell system and purified as published (Budde et al., 1993 and 2000). Recombinant Csk and the FGF receptor (FGFr) were expressed as glutathione-S-transferase fusion proteins using the pGEX expression vector and E. coli, and purified as described (Sun & Budde, 1995). The tyrosine kinase activity of Src, Csk and FGFr was determined using poly E4Y and ^32P-ATP. Briefly, enzymes were assayed in a reaction mixture consisting of 0.15 M EPPS-NaOH (pH 8.0) with 6 mM MgCl2, 0.2 mM γ^32P-ATP (0.2-0.4 mCi/μmol), 10% glycerol, 0.1% Triton X-100, and poly E4Y. Poly E4Y is a synthetic peptide whose phosphorylation is measured in this assay by the addition of the radioactively labeled phosphate from the ATP (Budde et al., 1995). […] When ATP was varied (0, 50, 100 and 250 μM), poly E4Y was kept constant at 150 μg/ml. […] From this screening, the thienopyrimidine-based scaffold was identified as one of the chemical structures to pursue. […] These analogues were screened against Src, Csk and FGFr (Table 2, Table 3, and Table 4).

[4] = Table 4, NI = no inhibition upto 50 ug/mL
[5] = screening assay, 50 μg/ml poly E4Y, 0.2 mM 32P-ATP
[6] = Table 2, read-out: Src IC50 (especially good inhibitors of Src)
[7] = read-out: IC50 (preferred compounds for treatment of Src family-related disease)
[8] = screening assay, 50 μg/ml poly E4Y, 0.2 mM 32P-ATP, read-out: Src IC50

Row | Compound | IC50 [1, 6] | IC50 [1, 7] | IC50 [2, 5] | further results
1 | CCO.Cc1csc2c(NN=Cc3cccnc3)ncnc12.Cc1csc2c(NN=Cc3cccnc3)ncnc12 [Compound 499] | – | – | – | IC50 ([1]; Table 4, read-out: Src IC50): 8600 nM; Csk IC50 [2, 4]: NI (NI = no inhibition upto 50 ug/mL); FGFr IC50 [3, 4]: NI (NI = no inhibition upto 50 ug/mL)
2 | 1-Hydroxy-1-methyl-1,1-di-[4-carboxybenzaldehyde(7-methylthieno[3,2-d]pyrimidin-4-yl)hydrazone]methane [Compound 500] | – | – | – | IC50 ([1]; Table 4, read-out: Src IC50): 5300 nM; IC50 [2, 4]: 57000 nM; FGFr IC50 [3, 4]: NI (NI = no inhibition upto 50 ug/mL)
3 | Cc1csc2c(NN=Cc3ccc(C(F)(F)F)cc3)ncnc12 [Compound 9, 4-Trifluoromethylbenzaldehyde(7-methylthieno[3,2-d]pyrimidin-4-yl)hydrazone] | – | – | – | Csk IC50 [2, 5]: NI (NI = no inhibition up to 50 ug/mL); FGFr IC50 [3, 5]: NI (NI = no inhibition up to 50 ug/mL)
4 | CCO.Cc1csc2c(NN=Cc3cccs3)ncnc12.Cc1csc2c(NN=Cc3cccs3)ncnc12 [Compound 501] | – | – | – | IC50 ([1]; Table 4, read-out: Src IC50): 10700 nM; Csk IC50 [2, 4]: NI (NI = no inhibition upto 50 ug/mL); FGFr IC50 [3, 4]: NI (NI = no inhibition upto 50 ug/mL)
5 | 1-Hydroxy-1-methyl-1,1-di-[3-hydroxy-4-methoxybenzaldehyde(7-methylthieno[3,2-d]pyrimidin-4-yl)hydrazone]methane [Compound 502] | – | – | – | IC50 ([1]; Table 4, read-out: Src IC50): 8700 nM; Csk IC50 [2, 4]: NI (NI = no inhibition upto 50 ug/mL); FGFr IC50 [3, 4]: NI (NI = no inhibition upto 50 ug/mL)
6 | Cc1csc2c(NN=Cc3ccsc3)ncnc12 [Compound 33, 3-Thiophenecarboxaldehyde(7-methylthieno[3,2-d]pyrimidin-4-yl)hydrazone] | ≤ 2000 nM | < 2000 nM | > 182000 nM | –
7 | Cc1csc2c(NN=Cc3ccc([N+](=O)[O-])cc3)ncnc12 [Compound 24] | – | – | > 160000 nM | IC50 [1, 8]: > 160000 nM
8 | Cc1csc2c(NN=Cc3cccc(Br)c3)ncnc12 [Compound 57, 3-Bromobenzaldehyde(7-methylthieno[3,2-d]pyrimidin-4-yl)hydrazone] | – | – | – | Csk IC50 [2, 5]: NI (NI = no inhibition up to 50 ug/mL); FGFr IC50 [3, 5]: NI (NI = no inhibition up to 50 ug/mL)
9 | COc1cc(C=NNc2ncnc3c(C)csc23)ccc1O [Compound 53, 4-Hydroxy-3-methoxybenzaldehyde(7-methylthieno[3,2-d]pyrimidin-4-yl)hydrazone] | ≤ 2000 nM | < 2000 nM | > 159000 nM | –
10 | Cc1csc2c(NN=Cc3ccccc3O)ncnc12 [Compound 44] | – | – | > 176000 nM | IC50 [1, 8]: > 176000 nM
11 | Cc1csc2c(NN=Cc3ccc(C#N)cc3)ncnc12 [Compound 121, 4-Cyanobenzaldehyde(7-methylthieno[3,2-d]pyrimidin-4-yl)hydrazone] | ≤ 2000 nM | < 2000 nM | > 170000 nM | –
12 | Cc1csc2c(NN=Cc3cccc(Cl)c3)ncnc12 [Compound 19, 3-Chlorobenzaldehyde(7-methylthieno[3,2-d]pyrimidin-4-yl)hydrazone] | ≤ 2000 nM | < 2000 nM | > 165000 nM | –
13 | COc1cccc(C=NNc2ncnc3c(C)csc23)c1 [Compound 137, 3-Methoxybenzaldehyde(7-methylthieno[3,2-d]pyrimidin-4-yl)hydrazone] | ≤ 2000 nM | < 2000 nM | > 168000 nM | –
14 | Cc1csc2c(NN=Cc3cccc(O)c3)ncnc12 [Compound 32, 3-Hydroxybenzaldehyde(7-methylthieno[3,2-d]pyrimidin-4-yl)hydrazone] | ≤ 2000 nM | < 2000 nM | > 176000 nM | –
15 | CCOc1ccc(C=NNc2ncnc3c(C)csc23)cc1 [Compound 48, 4-Ethoxybenzaldehyde(7-methylthieno[3,2-d]pyrimidin-4-yl)hydrazone] | ≤ 2000 nM | < 2000 nM | > 160000 nM | –
16 | C(=NNc1ncnc2cc(-c3ccsc3)sc12)c1cccnc1 [Compound 223, 3-Pyridinecarboxaldehyde(6-(3-thienyl)thieno[3,2-d]pyrimidin-4-yl)hydrazone] | – | – | – | Csk IC50 [2, 5]: NI (NI = no inhibition up to 50 ug/mL); FGFr IC50 [3, 5]: NI (NI = no inhibition up to 50 ug/mL)

Continued, in another order:

Row | IC50 [1, 6] | IC50 [1, 7] | IC50 [2, 5] | Compound | further results
17 | ≤ 2000 nM | < 2000 nM | > 128000 nM | COc1ccc(C=NNc2ncnc3c(C)c(-c4ccccc4)sc23)cc1O [Compound 362, 3-Hydroxy-4-methoxybenzaldehyde(7-methyl-6-phenylthieno[3,2-d]pyrimidin-4-yl)hydrazone] | –
18 | ≤ 2000 nM | < 2000 nM | > 133000 nM | COc1cccc(-c2sc3c(NN=Cc4cccnc4)ncnc3c2C)c1 [Compound 426, 3-Pyridinecarboxaldehyde(6-(3-methoxyphenyl)-7-methylthieno[3,2-d]pyrimidin-4-yl)hydrazone] | –
19 | ≤ 2000 nM | < 2000 nM | > 143000 nM | Cc1c(-c2ccccc2)sc2c(NN=Cc3cccs3)ncnc12 [Compound 361, 2-Thiophenecarboxaldehyde(7-methyl-6-phenylthieno[3,2-d]pyrimidin-4-yl)hydrazone] | –
20 | ≤ 2000 nM | < 2000 nM | > 161000 nM | C(=NNc1ncnc2c1sc1ncccc12)c1cccs1 [Compound 244, 2-Thiophenecarboxaldehyde(pyrido[3′,2′:4,5]thieno[3,2-d]pyrimidin-4-yl)hydrazone] | –
21 | ≤ 2000 nM | < 2000 nM | > 132000 nM | Cc1c(-c2ccccc2Cl)sc2c(NN=Cc3cccnc3)ncnc12 [Compound 389, 3-Pyridinecarboxaldehyde(6-(2-chlorophenyl)7-methylthieno[3,2-d]pyrimidin-4-yl)hydrazone] | –
22 | ≤ 2000 nM | < 2000 nM | > 133000 nM | COc1ccccc1-c1sc2c(NN=Cc3cccnc3)ncnc2c1C [Compound 432, 3-Pyridinecarboxaldehyde(6-(2-methoxyphenyl)-7-methylthieno[3,2-d]pyrimidin-4-yl)hydrazone] | –
23 | ≤ 2000 nM | < 2000 nM | > 142000 nM | COc1ccc(C=NNc2ncnc3c2sc2ncccc23)cc1O [Compound 247, 3-Hydroxy-4-methoxybenzaldehyde(pyrido[3′,2′:4,5]thieno[3,2-d]pyrimidin-4-yl)hydrazone] | –
24 | ≤ 2000 nM | < 2000 nM | > 142000 nM | Cc1c(-c2ccsc2)sc2c(NN=Cc3cccnc3)ncnc12 [Compound 379, 3-Pyridinecarboxaldehyde(7-methyl-6-(3-thienyl)thieno[3,2-d]pyrimidin-4-yl)hydrazone] | –
25 | ≤ 2000 nM | < 2000 nM | > 131000 nM | Cc1c(-c2cccc(CO)c2)sc2c(NN=Cc3cccs3)ncnc12 [Compound 442, 2-Thiophenecarboxaldehyde(6-(3-hydroxymethylphenyl)-7-methylthieno[3,2-d]pyrimidin-4-yl)hydrazone] | –
